What is called Kd is a measure of binding affinity in units of concentration. A high value points to a looser complex.

The assay deals with T1, HuNoV GII.4 VLP (Human calicivirus NLV/DIJON171/96, UniProt Q8QY55).
T1 construct: full VP1 virus-like particle, self-assembled, from baculovirus (Bac-to-Bac) infected SF-9 cells, sucrose gradient purified; amine-coupled to CM5 chip
Briefly: SPR, Biacore T-200, VLP immobilized on CM5 chip. It counts as binding. The source says: SPR, Biacore T-200, VLP immobilized on CM5 chip on HuNoV GII.4 VLP
In general terms: In SPR one partner is held on a chip, and binding of the other changes the refractive index at the surface.
`C[C@H](CCC(=O)NCCS(=O)(=O)O)[C@H]1CC[C@H]2[C@@H]3CC[C@@H]4C[C@H](O)CC[C@]4(C)[C@H]3C[C@H](O)[C@]12C` [TDCA] yielded a Kd of 308 ± 29.7 µM.
`C[C@H](CCC(=O)O)[C@H]1CC[C@H]2[C@@H]3CC[C@@H]4C[C@H](O)CC[C@]4(C)[C@H]3C[C@H](O)[C@]12C` [DCA] showed a Kd of 176 ± 4.9 µM.
Regarding `C[C@H](CCC(=O)NCCS(=O)(=O)O)[C@H]1CC[C@H]2[C@@H]3CC[C@@H]4C[C@H](O)CC[C@]4(C)[C@H]3CC[C@]12C` [TLCA], the Kd was found to be 64 ± 9.9 µM.
`C[C@H](CCC(=O)NCC(=O)O)[C@H]1CC[C@H]2[C@@H]3CC[C@@H]4C[C@H](O)CC[C@]4(C)[C@H]3C[C@H](O)[C@]12C` [GDCA] returned a Kd of 286 ± 64.3 µM.
`C[C@H](CCC(=O)NCC(=O)O)[C@H]1CC[C@H]2[C@@H]3[C@H](O)C[C@@H]4C[C@H](O)CC[C@]4(C)[C@H]3CC[C@]12C` [GCDCA]: the Kd was found to be 123 ± 24 µM.
`C[C@H](CCC(=O)NCCS(=O)(=O)O)[C@H]1CC[C@H]2[C@@H]3[C@H](O)C[C@@H]4C[C@H](O)CC[C@]4(C)[C@H]3CC[C@]12C` [TCDCA] gave a dissociation constant Kd of 236 ± 58 µM.

The values are drawn from paper PMC13288469, “Bile acids accumulate norovirus-like particles and enhance binding to and entry into human enteric epithelial cells” (Journal of Virology, 2026).
